Each molecule was assayed on Escherichia coli (assay: Antimicrobial activity against Escherichia coli ATCC 25922).
Assay type: functional
With `COC(=O)[C@@]12CO[C@@H](C(C)(C)C)N1C(=O)/C(=C(\C)NCC1CCC3CC1C3(C)C)C2=O` (stereo not given in full) the MIC was > 32 µg/mL.
`CCOC(=O)[C@]12CO[C@H](C(C)(C)C)N1C(=O)/C(=C(\C)NCCCN1CCOCC1)C2=O` was tested, and the MIC was > 32 µg/mL.
In the case of `CCOC(=O)[C@]12CO[C@H](C(C)(C)C)N1C(=O)/C(=C(\C)NCc1cccc(CN3CCC(C)CC3)c1)C2=O`, the MIC is reported as > 32 µg/mL.

Each molecule was assayed on Enterococcus faecalis (assay: Antimicrobial activity against vancomycin-susceptible Enterococcus faecalis ATCC 29212).
Assay type: functional
In the case of `COC(=O)[C@@]12CO[C@@H](C(C)(C)C)N1C(=O)/C(=C(\C)NCC1CCC3CC1C3(C)C)C2=O` (stereo not given in full), the MIC is reported as > 32 µg/mL.
`CCOC(=O)[C@]12CO[C@H](C(C)(C)C)N1C(=O)/C(=C(\C)NCCCN1CCOCC1)C2=O` was tested, and the MIC was > 32 µg/mL.
`CCOC(=O)[C@]12CO[C@H](C(C)(C)C)N1C(=O)/C(=C(\C)NCc1cccc(CN3CCC(C)CC3)c1)C2=O` was tested, and the MIC was > 32 µg/mL.

These molecules were tested on Streptococcus pneumoniae (assay: Antimicrobial activity against penicillin- and erythromycin-resistant Streptococcus pneumoniae).
Assay type: functional
For `COC(=O)[C@@]12CO[C@@H](C(C)(C)C)N1C(=O)/C(=C(\C)NCC1CCC3CC1C3(C)C)C2=O` (stereo not given in full), the MIC was > 32 µg/mL.
For `CCOC(=O)[C@]12CO[C@H](C(C)(C)C)N1C(=O)/C(=C(\C)NCCCN1CCOCC1)C2=O`, the MIC was > 32 µg/mL.
In the case of `CCOC(=O)[C@]12CO[C@H](C(C)(C)C)N1C(=O)/C(=C(\C)NCc1cccc(CN3CCC(C)CC3)c1)C2=O`, the MIC is reported as > 32 µg/mL.

These molecules were tested on Streptococcus pneumoniae (assay: Antimicrobial activity against penicillin- and erythromycin-resistant Streptococcus pneumoniae in presence of 2.5% horse blood).
Assay type: functional
`COC(=O)[C@@]12CO[C@@H](C(C)(C)C)N1C(=O)/C(=C(\C)NCC1CCC3CC1C3(C)C)C2=O` (stereo not given in full) was tested, and the MIC was > 32 µg/mL.
In the case of `CCOC(=O)[C@]12CO[C@H](C(C)(C)C)N1C(=O)/C(=C(\C)NCCCN1CCOCC1)C2=O`, the MIC is reported as > 32 µg/mL.
In the case of `CCOC(=O)[C@]12CO[C@H](C(C)(C)C)N1C(=O)/C(=C(\C)NCc1cccc(CN3CCC(C)CC3)c1)C2=O`, the MIC is reported as > 32 µg/mL.

What follows are molecules tested on Haemophilus influenzae (assay: Antimicrobial activity against Haemophilus influenzae ATCC 31517 MMSA).
Assay type: functional
In the case of `COC(=O)[C@@]12CO[C@@H](C(C)(C)C)N1C(=O)/C(=C(\C)NCC1CCC3CC1C3(C)C)C2=O` (stereo not given in full), the MIC is reported as > 32 µg/mL.
For `CCOC(=O)[C@]12CO[C@H](C(C)(C)C)N1C(=O)/C(=C(\C)NCCCN1CCOCC1)C2=O`, the MIC was > 32 µg/mL.
`CCOC(=O)[C@]12CO[C@H](C(C)(C)C)N1C(=O)/C(=C(\C)NCc1cccc(CN3CCC(C)CC3)c1)C2=O` was tested, and the MIC was > 32 µg/mL.

The molecules below were run on Staphylococcus aureus (assay: Antimicrobial activity against methicillin-sensitive Staphylococcus aureus ATCC 13709).
Assay type: functional
For `COC(=O)[C@@]12CO[C@@H](C(C)(C)C)N1C(=O)/C(=C(\C)NCC1CCC3CC1C3(C)C)C2=O` (stereo not given in full), the MIC was > 32 µg/mL.
For `CCOC(=O)[C@]12CO[C@H](C(C)(C)C)N1C(=O)/C(=C(\C)NCCCN1CCOCC1)C2=O`, the MIC was > 32 µg/mL.
`CCOC(=O)[C@]12CO[C@H](C(C)(C)C)N1C(=O)/C(=C(\C)NCc1cccc(CN3CCC(C)CC3)c1)C2=O` was tested, and the MIC was > 32 µg/mL.

These molecules were tested on Enterococcus faecium (assay: Antimicrobial activity against vancomycin-resistant Enterococcus faecium).
Assay type: functional
With `COC(=O)[C@@]12CO[C@@H](C(C)(C)C)N1C(=O)/C(=C(\C)NCC1CCC3CC1C3(C)C)C2=O` (stereo not given in full) the MIC was > 32 µg/mL.
For `CCOC(=O)[C@]12CO[C@H](C(C)(C)C)N1C(=O)/C(=C(\C)NCCCN1CCOCC1)C2=O`, the MIC was > 32 µg/mL.
For `CCOC(=O)[C@]12CO[C@H](C(C)(C)C)N1C(=O)/C(=C(\C)NCc1cccc(CN3CCC(C)CC3)c1)C2=O`, the MIC was > 32 µg/mL.

Each molecule was assayed on Pseudomonas aeruginosa (assay: Antimicrobial activity against Pseudomonas aeruginosa ATCC 27853).
Assay type: functional
In the case of `COC(=O)[C@@]12CO[C@@H](C(C)(C)C)N1C(=O)/C(=C(\C)NCC1CCC3CC1C3(C)C)C2=O` (stereo not given in full), the MIC is reported as > 32 µg/mL.
`CCOC(=O)[C@]12CO[C@H](C(C)(C)C)N1C(=O)/C(=C(\C)NCCCN1CCOCC1)C2=O` was tested, and the MIC was > 32 µg/mL.
For `CCOC(=O)[C@]12CO[C@H](C(C)(C)C)N1C(=O)/C(=C(\C)NCc1cccc(CN3CCC(C)CC3)c1)C2=O`, the MIC was > 32 µg/mL.

These molecules were tested on Staphylococcus aureus (assay: Antimicrobial activity against Staphylococcus aureus Oxford).
Assay type: functional
In the case of `COC(=O)[C@@]12CO[C@@H](C(C)(C)C)N1C(=O)/C(=C(\C)NCC1CCC3CC1C3(C)C)C2=O` (stereo not given in full), the MIC is reported as > 32 µg/mL.
In the case of `CCOC(=O)[C@]12CO[C@H](C(C)(C)C)N1C(=O)/C(=C(\C)NCCCN1CCOCC1)C2=O`, the MIC is reported as > 32 µg/mL.
`CCOC(=O)[C@]12CO[C@H](C(C)(C)C)N1C(=O)/C(=C(\C)NCc1cccc(CN3CCC(C)CC3)c1)C2=O` was tested, and the MIC was > 32 µg/mL.

The molecules below were run on Haemophilus influenzae (assay: Antimicrobial activity against LS2 Efflux knock-out Haemophilus influenzae).
Assay type: functional
For `COC(=O)[C@@]12CO[C@@H](C(C)(C)C)N1C(=O)/C(=C(\C)NCC1CCC3CC1C3(C)C)C2=O` (stereo not given in full), the MIC was > 32 µg/mL.
`CCOC(=O)[C@]12CO[C@H](C(C)(C)C)N1C(=O)/C(=C(\C)NCCCN1CCOCC1)C2=O` was tested, and the MIC was > 32 µg/mL.
In the case of `CCOC(=O)[C@]12CO[C@H](C(C)(C)C)N1C(=O)/C(=C(\C)NCc1cccc(CN3CCC(C)CC3)c1)C2=O`, the MIC is reported as > 32 µg/mL.

Each molecule was assayed on Staphylococcus aureus (assay: Antimicrobial activity against methicillin-resistant Staphylococcus aureus).
Assay type: functional
`COC(=O)[C@@]12CO[C@@H](C(C)(C)C)N1C(=O)/C(=C(\C)NCC1CCC3CC1C3(C)C)C2=O` (stereo not given in full) was tested, and the MIC was > 32 µg/mL.
With `CCOC(=O)[C@]12CO[C@H](C(C)(C)C)N1C(=O)/C(=C(\C)NCCCN1CCOCC1)C2=O` the MIC was > 32 µg/mL.
`CCOC(=O)[C@]12CO[C@H](C(C)(C)C)N1C(=O)/C(=C(\C)NCc1cccc(CN3CCC(C)CC3)c1)C2=O` was tested, and the MIC was > 32 µg/mL.

These molecules were tested on Escherichia coli (assay: Antimicrobial activity against Escherichia coli 50).
Assay type: functional
With `COC(=O)[C@@]12CO[C@@H](C(C)(C)C)N1C(=O)/C(=C(\C)NCC1CCC3CC1C3(C)C)C2=O` (stereo not given in full) the MIC was > 32 µg/mL.
In the case of `CCOC(=O)[C@]12CO[C@H](C(C)(C)C)N1C(=O)/C(=C(\C)NCCCN1CCOCC1)C2=O`, the MIC is reported as > 32 µg/mL.
`CCOC(=O)[C@]12CO[C@H](C(C)(C)C)N1C(=O)/C(=C(\C)NCc1cccc(CN3CCC(C)CC3)c1)C2=O` was tested, and the MIC was > 32 µg/mL.

Each molecule was assayed on Streptococcus pneumoniae (assay: Antimicrobial activity against erythromycin-susceptible Streptococcus pneumoniae ATCC 49619).
Assay type: functional
With `COC(=O)[C@@]12CO[C@@H](C(C)(C)C)N1C(=O)/C(=C(\C)NCC1CCC3CC1C3(C)C)C2=O` (stereo not given in full) the MIC was > 32 µg/mL.
`CCOC(=O)[C@]12CO[C@H](C(C)(C)C)N1C(=O)/C(=C(\C)NCCCN1CCOCC1)C2=O` was tested, and the MIC was > 32 µg/mL.
In the case of `CCOC(=O)[C@]12CO[C@H](C(C)(C)C)N1C(=O)/C(=C(\C)NCc1cccc(CN3CCC(C)CC3)c1)C2=O`, the MIC is reported as > 32 µg/mL.

Each molecule was assayed on Escherichia coli (assay: Antimicrobial activity against Escherichia coli 49).
Assay type: functional
With `COC(=O)[C@@]12CO[C@@H](C(C)(C)C)N1C(=O)/C(=C(\C)NCC1CCC3CC1C3(C)C)C2=O` (stereo not given in full) the MIC was > 32 µg/mL.
`CCOC(=O)[C@]12CO[C@H](C(C)(C)C)N1C(=O)/C(=C(\C)NCCCN1CCOCC1)C2=O` was tested, and the MIC was > 32 µg/mL.
With `CCOC(=O)[C@]12CO[C@H](C(C)(C)C)N1C(=O)/C(=C(\C)NCc1cccc(CN3CCC(C)CC3)c1)C2=O` the MIC was > 32 µg/mL.

These molecules were tested on Staphylococcus aureus (assay: Antimicrobial activity against vancomycin-susceptible Staphylococcus aureus ATCC 25923).
Assay type: functional
In the case of `COC(=O)[C@@]12CO[C@@H](C(C)(C)C)N1C(=O)/C(=C(\C)NCC1CCC3CC1C3(C)C)C2=O` (stereo not given in full), the MIC is reported as > 32 µg/mL.
For `CCOC(=O)[C@]12CO[C@H](C(C)(C)C)N1C(=O)/C(=C(\C)NCCCN1CCOCC1)C2=O`, the MIC was > 32 µg/mL.
In the case of `CCOC(=O)[C@]12CO[C@H](C(C)(C)C)N1C(=O)/C(=C(\C)NCc1cccc(CN3CCC(C)CC3)c1)C2=O`, the MIC is reported as > 32 µg/mL.

— ChEMBL document CHEMBL3232809, “Synthesis, antibiotic activity and structure-activity relationship study of some 3-enaminetetramic acids” (2014)
